One experiment concerns the target T1, Nitric oxide synthase 3 (Bos taurus, UniProt P29473).
T1 sequence (P29473 whole entry): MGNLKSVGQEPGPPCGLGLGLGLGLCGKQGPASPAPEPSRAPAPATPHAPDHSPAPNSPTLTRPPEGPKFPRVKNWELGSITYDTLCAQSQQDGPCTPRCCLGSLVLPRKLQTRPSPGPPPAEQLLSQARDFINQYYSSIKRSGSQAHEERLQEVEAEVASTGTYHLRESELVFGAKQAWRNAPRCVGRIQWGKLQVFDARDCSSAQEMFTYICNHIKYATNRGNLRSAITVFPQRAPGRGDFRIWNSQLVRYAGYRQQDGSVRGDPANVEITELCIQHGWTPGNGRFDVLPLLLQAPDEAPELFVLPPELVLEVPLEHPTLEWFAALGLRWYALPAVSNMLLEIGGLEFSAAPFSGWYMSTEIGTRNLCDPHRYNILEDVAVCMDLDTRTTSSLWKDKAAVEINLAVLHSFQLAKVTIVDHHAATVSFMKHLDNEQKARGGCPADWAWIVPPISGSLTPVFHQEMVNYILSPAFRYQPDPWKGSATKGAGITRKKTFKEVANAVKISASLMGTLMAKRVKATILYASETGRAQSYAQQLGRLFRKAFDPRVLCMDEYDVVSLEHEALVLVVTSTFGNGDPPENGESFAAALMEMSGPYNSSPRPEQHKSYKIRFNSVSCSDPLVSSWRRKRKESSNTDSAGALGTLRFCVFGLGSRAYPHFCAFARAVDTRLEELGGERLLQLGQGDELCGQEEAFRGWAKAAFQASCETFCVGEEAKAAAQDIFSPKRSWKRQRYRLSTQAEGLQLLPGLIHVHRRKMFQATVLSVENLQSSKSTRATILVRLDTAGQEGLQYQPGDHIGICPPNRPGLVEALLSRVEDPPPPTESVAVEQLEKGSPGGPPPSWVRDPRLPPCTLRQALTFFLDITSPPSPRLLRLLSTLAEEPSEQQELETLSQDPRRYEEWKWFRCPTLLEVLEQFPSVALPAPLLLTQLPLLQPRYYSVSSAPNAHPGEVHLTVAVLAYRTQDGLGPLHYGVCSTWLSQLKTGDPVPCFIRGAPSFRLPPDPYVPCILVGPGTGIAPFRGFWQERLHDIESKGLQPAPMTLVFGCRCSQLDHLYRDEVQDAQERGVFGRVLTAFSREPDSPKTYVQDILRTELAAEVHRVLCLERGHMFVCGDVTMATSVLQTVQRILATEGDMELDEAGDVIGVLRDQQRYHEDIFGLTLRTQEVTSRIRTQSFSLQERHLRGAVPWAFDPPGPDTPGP

Experiment [1] addresses Nitric oxide synthase 1 (Homo sapiens, UniProt P29475). The experiment is described as follows: Inhibition of human nNOS expressed in Escherichia coli assessed as inhibition of nitric oxide formation by hemoglobin capture assay.
The target of experiment [2] is T2, Nitric oxide synthase, inducible (Mus musculus, UniProt P29477).
T2 sequence (P29477 whole entry): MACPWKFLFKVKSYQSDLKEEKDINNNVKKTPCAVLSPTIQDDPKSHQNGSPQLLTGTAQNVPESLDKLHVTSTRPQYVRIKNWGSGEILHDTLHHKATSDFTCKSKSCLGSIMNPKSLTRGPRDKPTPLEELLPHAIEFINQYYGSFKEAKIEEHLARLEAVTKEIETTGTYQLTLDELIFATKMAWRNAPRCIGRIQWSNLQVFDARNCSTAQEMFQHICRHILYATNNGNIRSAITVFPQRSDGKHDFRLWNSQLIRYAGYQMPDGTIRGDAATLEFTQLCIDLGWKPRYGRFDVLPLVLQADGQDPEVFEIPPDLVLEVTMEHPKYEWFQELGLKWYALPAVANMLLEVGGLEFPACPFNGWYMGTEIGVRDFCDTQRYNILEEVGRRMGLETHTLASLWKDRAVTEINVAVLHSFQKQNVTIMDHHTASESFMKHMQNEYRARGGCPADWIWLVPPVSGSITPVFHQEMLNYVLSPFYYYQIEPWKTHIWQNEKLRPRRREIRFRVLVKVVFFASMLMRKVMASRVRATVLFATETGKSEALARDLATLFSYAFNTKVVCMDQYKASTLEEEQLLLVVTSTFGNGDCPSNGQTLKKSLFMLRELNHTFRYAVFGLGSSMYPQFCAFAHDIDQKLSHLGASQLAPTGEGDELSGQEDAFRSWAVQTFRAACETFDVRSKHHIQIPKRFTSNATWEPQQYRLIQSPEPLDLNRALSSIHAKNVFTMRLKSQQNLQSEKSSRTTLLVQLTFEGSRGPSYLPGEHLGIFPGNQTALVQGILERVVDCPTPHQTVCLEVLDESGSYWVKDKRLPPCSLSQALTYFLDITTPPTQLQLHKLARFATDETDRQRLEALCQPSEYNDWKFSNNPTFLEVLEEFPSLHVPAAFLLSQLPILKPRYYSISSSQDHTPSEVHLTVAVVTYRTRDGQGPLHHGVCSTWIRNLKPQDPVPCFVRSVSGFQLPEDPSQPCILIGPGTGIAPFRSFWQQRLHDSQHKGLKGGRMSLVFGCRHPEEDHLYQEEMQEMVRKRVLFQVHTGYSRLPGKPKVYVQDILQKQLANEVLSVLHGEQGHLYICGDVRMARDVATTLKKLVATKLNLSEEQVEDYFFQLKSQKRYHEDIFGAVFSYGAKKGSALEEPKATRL
Briefly: Inhibition of mouse iNOS expressed in Escherichia coli assessed as inhibition of nitric oxide formation by hemoglobin capture assay.

The target in experiment [3] is Nitric oxide synthase 1 (Rattus norvegicus, UniProt P29476). The experiment is described as follows: Inhibition of rat nNOS expressed in Escherichia coli assessed as inhibition of nitric oxide formation by hemoglobin capture assay.

Each structure is given as a SMILES string.

Chain of Nitric oxide synthase 1 (Homo sapiens, UniProt P29475) (P29475 whole entry): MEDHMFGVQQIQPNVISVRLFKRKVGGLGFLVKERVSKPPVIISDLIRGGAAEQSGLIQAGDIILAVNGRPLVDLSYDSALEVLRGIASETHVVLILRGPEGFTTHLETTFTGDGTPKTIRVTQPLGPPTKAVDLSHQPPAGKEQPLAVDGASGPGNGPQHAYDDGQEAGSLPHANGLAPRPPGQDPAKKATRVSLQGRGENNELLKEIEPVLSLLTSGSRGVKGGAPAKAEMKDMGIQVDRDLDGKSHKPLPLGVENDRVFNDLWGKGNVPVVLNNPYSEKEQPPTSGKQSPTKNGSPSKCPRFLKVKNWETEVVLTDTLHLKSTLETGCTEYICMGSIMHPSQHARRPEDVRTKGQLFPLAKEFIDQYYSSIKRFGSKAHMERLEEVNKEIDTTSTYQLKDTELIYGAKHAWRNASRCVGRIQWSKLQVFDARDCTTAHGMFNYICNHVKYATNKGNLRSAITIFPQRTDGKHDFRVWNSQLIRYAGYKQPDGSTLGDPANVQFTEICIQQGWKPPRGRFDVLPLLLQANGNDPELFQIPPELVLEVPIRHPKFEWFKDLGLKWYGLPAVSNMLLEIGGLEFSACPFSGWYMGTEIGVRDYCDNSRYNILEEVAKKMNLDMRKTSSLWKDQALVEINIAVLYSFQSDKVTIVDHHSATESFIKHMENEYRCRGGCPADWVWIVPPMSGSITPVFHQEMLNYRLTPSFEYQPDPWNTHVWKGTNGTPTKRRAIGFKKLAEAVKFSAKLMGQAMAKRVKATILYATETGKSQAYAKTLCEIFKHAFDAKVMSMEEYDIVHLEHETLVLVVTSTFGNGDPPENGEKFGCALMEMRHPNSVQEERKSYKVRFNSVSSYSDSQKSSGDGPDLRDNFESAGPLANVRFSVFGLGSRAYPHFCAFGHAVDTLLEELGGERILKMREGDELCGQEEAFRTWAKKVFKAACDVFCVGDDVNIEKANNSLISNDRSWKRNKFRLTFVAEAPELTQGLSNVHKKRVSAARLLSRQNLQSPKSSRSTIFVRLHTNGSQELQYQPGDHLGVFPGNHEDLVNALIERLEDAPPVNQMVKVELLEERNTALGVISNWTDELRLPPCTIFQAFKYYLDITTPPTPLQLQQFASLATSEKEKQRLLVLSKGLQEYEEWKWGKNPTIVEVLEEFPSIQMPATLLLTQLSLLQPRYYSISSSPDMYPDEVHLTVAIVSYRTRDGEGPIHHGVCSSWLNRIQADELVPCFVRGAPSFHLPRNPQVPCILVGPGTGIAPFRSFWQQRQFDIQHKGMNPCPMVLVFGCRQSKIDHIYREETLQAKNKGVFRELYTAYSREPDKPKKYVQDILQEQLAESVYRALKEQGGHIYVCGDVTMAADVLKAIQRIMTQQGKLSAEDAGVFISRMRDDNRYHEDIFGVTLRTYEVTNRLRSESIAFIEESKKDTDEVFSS
Chain of Nitric oxide synthase 1 (Rattus norvegicus, UniProt P29476) (P29476 whole entry): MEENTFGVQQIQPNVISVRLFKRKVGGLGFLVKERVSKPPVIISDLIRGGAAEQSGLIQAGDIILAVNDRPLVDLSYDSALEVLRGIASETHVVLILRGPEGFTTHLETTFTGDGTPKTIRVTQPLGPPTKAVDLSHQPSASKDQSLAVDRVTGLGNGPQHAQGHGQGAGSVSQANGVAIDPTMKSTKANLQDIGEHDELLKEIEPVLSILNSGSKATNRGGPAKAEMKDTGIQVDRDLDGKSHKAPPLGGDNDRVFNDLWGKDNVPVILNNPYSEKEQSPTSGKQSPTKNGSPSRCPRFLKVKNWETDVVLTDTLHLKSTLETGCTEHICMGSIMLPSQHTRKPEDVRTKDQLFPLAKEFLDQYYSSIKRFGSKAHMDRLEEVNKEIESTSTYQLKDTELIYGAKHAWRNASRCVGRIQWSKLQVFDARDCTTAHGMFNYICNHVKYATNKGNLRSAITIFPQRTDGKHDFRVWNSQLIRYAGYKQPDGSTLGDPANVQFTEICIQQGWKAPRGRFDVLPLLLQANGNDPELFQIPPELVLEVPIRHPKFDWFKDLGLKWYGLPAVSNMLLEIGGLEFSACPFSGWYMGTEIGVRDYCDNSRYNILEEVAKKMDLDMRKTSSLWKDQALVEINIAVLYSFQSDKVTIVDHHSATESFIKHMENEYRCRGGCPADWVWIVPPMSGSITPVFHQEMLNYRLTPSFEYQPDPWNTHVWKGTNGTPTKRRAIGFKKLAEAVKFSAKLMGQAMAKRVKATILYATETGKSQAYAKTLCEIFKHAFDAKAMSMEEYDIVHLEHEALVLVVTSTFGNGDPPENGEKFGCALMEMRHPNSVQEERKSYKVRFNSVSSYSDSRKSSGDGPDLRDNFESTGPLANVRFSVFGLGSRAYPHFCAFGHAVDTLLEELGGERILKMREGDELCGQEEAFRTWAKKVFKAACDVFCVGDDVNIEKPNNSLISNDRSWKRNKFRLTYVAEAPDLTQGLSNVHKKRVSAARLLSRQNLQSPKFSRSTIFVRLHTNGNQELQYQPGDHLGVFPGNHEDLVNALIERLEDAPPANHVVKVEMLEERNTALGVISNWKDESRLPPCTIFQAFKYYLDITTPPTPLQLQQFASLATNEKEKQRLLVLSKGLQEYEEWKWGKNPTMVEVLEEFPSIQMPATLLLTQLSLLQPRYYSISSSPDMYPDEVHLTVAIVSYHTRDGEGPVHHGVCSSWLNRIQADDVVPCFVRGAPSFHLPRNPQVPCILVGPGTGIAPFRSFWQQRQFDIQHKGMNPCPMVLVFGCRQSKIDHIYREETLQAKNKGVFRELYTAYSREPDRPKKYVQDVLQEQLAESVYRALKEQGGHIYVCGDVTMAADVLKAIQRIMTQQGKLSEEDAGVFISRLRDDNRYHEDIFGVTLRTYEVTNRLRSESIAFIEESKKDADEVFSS
Description for Nitric oxide synthase 3: Inhibition of bovine eNOS expressed in Escherichia coli assessed as inhibition of nitric oxide formation by hemoglobin capture assay

Turning to `Nc1cccc(C[C@@H]2CNC[C@@H]2OCCNCCc2cccc(F)c2)n1`, the Ki at Nitric oxide synthase 3 was found to be 58 µM; on Nitric oxide synthase 1 [1], 0.29 µM; in experiment [2] it was 10 µM; on Nitric oxide synthase 1 [3], 0.05 µM.

As for `Nc1cccc(C[C@H]2CNC[C@H]2OCCNCCc2cccc(F)c2)n1`, the Ki is 59 µM at Nitric oxide synthase 3, 1.8 µM on Nitric oxide synthase 1 [1], 13.2 µM in experiment [2] and 0.22 µM at Nitric oxide synthase 1 [3].

In the case of `NC1=NC(C[C@@H]2CNC[C@@H]2OCCNCCc2cccc(F)c2)CCC1` (stereo partly drawn), the Ki came out at 58 µM on Nitric oxide synthase 3, 0.49 µM at Nitric oxide synthase 1 [1], 21.8 µM in experiment [2] and 0.11 µM at Nitric oxide synthase 1 [3].

Turning to `Cc1cc(N)nc(C[C@@H]2CNC[C@@H]2OCCNCCc2cccc(F)c2)c1`, the inhibition constant Ki at Nitric oxide synthase 1 [1] stood at 0.05 µM.

For orientation: Ki means the dissociation constant of the complex between target and ligand, obtained from inhibition or displacement.

These data come from ChEMBL document CHEMBL1268881, “Peripheral but crucial: a hydrophobic pocket (Tyr(706), Leu(337), and Met(336)) for potent and selective inhibition of neuronal nitric oxide synthase” (Bioorg Med Chem Lett, 2010).
